Source: paper PMC7993833, “EDP-938, a novel nucleoprotein inhibitor of respiratory syncytial virus, demonstrates potent antiviral activities in vitro and in a non-human primate model” (PLoS Pathogens, 2021)
Entries after “also recorded” stand apart in the source; their conditions may differ.

What was measured:
RSV-A2 [1] = test: CPE assay, RSV-A2 in Vero cells; assay type: cell-based; settings: human respiratory syncytial virus
Method: (§1) HEp-2, Vero, and BHK were seeded at 8,000 cells per well (cpw) in growth medium (Dulbecco’s Modified Eagle Medium (DMEM) with 1% GlutaMAX, 1% Penicillin/Streptomycin (P/S), 1% Non-Essential Amino Acids (NEAA), 10% Fetal Bovine Serum (FBS)) or (Minimum Essential Medium (MEM) with 10% FBS, 1% NEAA, 1% P/S) or (Eagle’s Minimum Essential Medium with L-Glutamine, with 10% FBS, 1% P/S) respectively. A549 seeded at 3,000 cpw in F-12K Kaighn’s Modification nutrient mixture with 10% FBS, 1% NEAA, 1% P/S. Cells seeded at time of infection in 96-well plates, final well volume 100μL. Compounds suspended in DMSO, serially diluted and added to wells at 0.5% final DMSO concentration. Viral stocks stabilized with 25% sucrose, previously titered using plaque assay, were added at desired MOI. Sucrose added to cells-only control wells to match percent added with virus. Unless otherwise noted, RSV-A strains were tested at 0.1 MOI and incubated for 5 days in a 37°C, 5% CO2 humidified incubator, and RSV-B at 0.5 MOI for 6 days. Cytopathic effect (CPE) determined using ATPlite (Perkin Elmer) measured with Envision luminometer. For RT-qPCR, RNA was extracted from whole well using Ambion RNAqueous-96 Automated Kit, and RT-qPCR run using Applied Biosystems TaqMan RNA-to-CT 1-Step Kit. […] All EC50s were calculated using the XLFit four-parameter logistic model 200 in Microsoft Excel.

RSV-A M37 = test: CPE assay, RSV-A M37 in HEp-2 cells; assay type: cell-based; settings: human respiratory syncytial virus
Method: as §1

RSV-A Long [2] = test: RT-qPCR assay, RSV-A Long in Vero cells; assay type: cell-based; settings: human respiratory syncytial virus
[3] = test system: RSV-A and RSV-B laboratory strains; test: CPE assay, RSV laboratory strains across primate cell lines; assay type: cell-based; settings: human respiratory syncytial virus, in Primates, read-out: EC50 values, inhibition of CPE (range over strains and cells)
Method: The activity of EDP-938 against both RSV-A and RSV-B was evaluated in vitro against multiple laboratory strains commonly used for antiviral screens in HEp-2 cells, human adenocarcinomic alveolar basal epithelial cells (A549), monkey kidney-derived cells (Vero), and Baby Hamster Kidney cells (BHK). Serial dilutions of the compound were added to cells infected with RSV-A at a MOI of 0.1 or RSV-B at an MOI of 0.5 and treated for 5 or 6 days, respectively.
(§2) HEp-2, Vero, and BHK were seeded at 8,000 cells per well (cpw) in growth medium (Dulbecco’s Modified Eagle Medium (DMEM) with 1% GlutaMAX, 1% Penicillin/Streptomycin (P/S), 1% Non-Essential Amino Acids (NEAA), 10% Fetal Bovine Serum (FBS)) or (Minimum Essential Medium (MEM) with 10% FBS, 1% NEAA, 1% P/S) or (Eagle’s Minimum Essential Medium with L-Glutamine, with 10% FBS, 1% P/S) respectively. A549 seeded at 3,000 cpw in F-12K Kaighn’s Modification nutrient mixture with 10% FBS, 1% NEAA, 1% P/S. Cells seeded at time of infection in 96-well plates, final well volume 100μL. Compounds suspended in DMSO, serially diluted and added to wells at 0.5% final DMSO concentration. […] Cytopathic effect (CPE) determined using ATPlite (Perkin Elmer) measured with Envision luminometer. […] All EC50s were calculated using the XLFit four-parameter logistic model 200 in Microsoft Excel.

RSV-A2 [4] = test: CPE assay, RSV-A2 in HEp-2 cells; assay type: cell-based; settings: human respiratory syncytial virus
Method: as §1

HEK-293 cells = test: Cytotoxicity (ATPlite) in HEK-293 cells; assay type: cell-based, human; settings: at up to 50 μM, 3 days
Method: (§3) HEp-2, A549, and CHO cells were seeded at 3,000 cpw in their respective growth medium. CHO growth medium used was RPMI medium 1640 with 10% FBS, 1% P/S, 1% GlutaMAX. HEK-293 cells seeded at 10,000 cpw in DMEM growth medium. Undifferentiated HBECs were seeded in collagen-coated 96-well plates at 7,500 cpw in appropriate growth medium. Compound added and incubated for 3 days (4 days for HBECs) as described above. Plates read with ATPlite and CC50 calculated as EC50s as described above. SI = CC50/EC50 within a cell line.

[5] = test system: GS-5806- and AZ-27-resistant RSV; test: Activity against GS-5806- and AZ-27-selected resistant viruses; assay type: cell-based, respiratory syncytial virus; settings: GS-5806- and AZ-27-resistant viruses
RSV-A Long [6] = test: RT-qPCR assay, RSV-A Long in primary neonatal lamb bronchial epithelial cells; assay type: cell-based; settings: human respiratory syncytial virus, Epithelial cell
A549 cells = test: Cytotoxicity (ATPlite) in A549 cells; assay type: cell-based, human; settings: at up to 50 μM, 3 days
Method: as §3

RSV-B clinical isolates = test: Susceptibility of USA-derived RSV-B clinical isolates; assay type: cell-based; settings: human respiratory syncytial virus
Method: Serial dilutions of the compound were added to cells infected with RSV-A isolates at an MOI of 0.1 (except for isolate 629-9-2 at an MOI of 0.01) or RSV-B isolates at an MOI of 0.5 (expect for isolate 629-24/2007 at an MOI of 0.0044) and were treated for 5 or 6 days, respectively. […] This is consistent with the fact that the viral N protein, which is the putative target of the antiviral effect of EDP-938, is the most conserved RSV protein [11].
as §2, with “Excel. […]” for “Excel.”

RSV-A Long [7] = test: In vitro combination study (CPE, Loewe additivity, CalcuSyn); assay type: cell-based, respiratory syncytial virus
Method: The combination effect of EDP-938 with other RSV inhibitors of different mechanisms/targets was investigated in vitro. RSV-A Long infected HEp-2 cells were treated with various concentrations of EDP-938 either alone or in combination with the fusion inhibitor GS-5806, non-nucleoside L polymerase inhibitor AZ-27, nucleoside inhibitor ALS-8112 [38], ribavirin, or palivizumab. The combination of two compounds always led to a greater inhibition than a single agent alone.
To determine whether the effect of the combination was synergistic, additive or antagonistic, the data were analyzed by the Loewe additivity model using Calcusyn software, which gave a Combination Index (CI) value at various effective concentrations of the compounds. […] As an experimental control, adding EDP-938 to itself was additive. For details see S4 Table.
As described above with 8,000 HEp-2 cpw, 0.1 MOI RSV-A Long, 5-day endpoint, and CPE readout. Compounds added in serial 1.3-fold 6-point dilutions across both X- and Y-axes of plate. Plates run in quadruplicate with one uninfected plate for cytotoxicity. Combination indexes calculated using Loewe additivity model using CalcuSyn software from Biosoft.

Compound O=C1Nc2ccccc2C(c2ccccc2)=N[C@@H]1Nc1nnc(-c2ncc(C(F)(F)F)cc2N2CCOCC2)o1 [EDP-938] has an EC50 (RSV-A2 [1]) of 33 ± 7 nM, an EC90 (RSV-A2 [1]) of 44 ± 18 nM and an EC50 (RSV-A M37) of 28 ± 4 nM. The EC90 (RSV-A M37) was 34 ± 10 nM, the EC50 (RSV-A Long [2]) was 79 ± 12 nM and the EC90 (RSV-A Long [2]) was 118 ± 25 nM. The EC50 [3] was 28 to 72 nM, the EC50 (RSV-A2 [4]) was 28 ± 4 nM and the EC90 (RSV-A2 [4]) was 40 ± 3 nM. For the same compound, the cytotoxicity (HEK-293 cells) was “no significant cytotoxicity”, the “cross resistance of GS-5806- and AZ-27-resistant strains” value [5] was “no signs of cross resistance” and the EC50 (RSV-A Long [6]; 144 h, RSV-A Long MOI 0.1, 6 days) was over 800 nM. The EC90 (RSV-A Long [6]; RSV-A Long) was over 800 nM, the cytotoxicity (A549 cells) was “no significant cytotoxicity” and the EC50 (RSV-B clinical isolates) was 121 nM. For the same compound, the “combination effect (Combination Index)” value (RSV-A Long [7]; EDP-938 added to itself, CI 0.9–1.1 additivity, <0.9 synergy, >1.1 antagonism) was “additive; also recorded: additivity”, the “combination effect (Combination Index)” value (RSV-A Long [7]; EDP-938 combined with ALS-8112, AZ-27, GS-5806 or palivizumab) was “moderate levels of synergy” and the “combination effect (Combination Index)” value (RSV-A Long [7]; EDP-938 combined with ribavirin) was “additivity”.
